{"source": "patent US20240197726A1", "about": "“NOVEL TETRAHYDROISOQUINOLINE ALKALOID COMPOUND CONTAINING MACROCYCLE” (THE UNIVERSITY OF TOKYO, priority 2021, published 2024)", "origin": "cited, not measured here", "conditions_in_all_cases": "cited from earlier work", "key": {"[1]": {"tested_on": "MCF-7 breast cancer cells"}, "[2]": {"tested_on": "MDA-MB-231 breast cancer cells"}, "[3]": {"tested_on": "HT-29 colorectal cancer cells"}, "[4]": {"tested_on": "HCT-116 colorectal cancer cells"}, "[5]": {"tested_on": "NCI-H23 lung cancer cells"}, "[6]": {"tested_on": "NCI-H460 lung cancer cells"}, "A549 lung cancer cells": {"tested_on": "A549 lung cancer cells"}}, "note": "Like-named read-outs stand apart in the source and are kept apart here."}
{"smiles": "COc1ccc2[nH]c3c(c2c1)CCN[C@]31CS[C@@H]2c3c(OC(C)=O)c(C)c4c(c3[C@H](COC1=O)N1[C@@H]2[C@H]2c3c(cc(C)c(OC)c3O)C[C@@H]([C@@H]1O)N2C)OCO4", "note": "[lurbinectedin, reference compound]", "values": [{"measurement": "GI50", "setting": "[1]; MCF-7, reference values from literature (Leal et al. Br. J Pharmacol, 2010), read-out: GI50 value: 50% growth inhibitory concentration", "result": 1.7, "unit": "nM"}, {"measurement": "GI50", "setting": "[2]; MDA-MB-231, reference values from literature (Leal et al. Br. J Pharmacol, 2010), read-out: GI50 value: 50% growth inhibitory concentration", "result": 3.4, "unit": "nM"}, {"measurement": "GI50", "setting": "[3]; HT-29, reference values from literature (Leal et al. Br. J Pharmacol, 2010), read-out: GI50 value: 50% growth inhibitory concentration", "result": 2.4, "unit": "nM"}, {"measurement": "GI50", "setting": "[4]; HCT-116, reference values from literature (Leal et al. Br. J Pharmacol, 2010), read-out: GI50 value: 50% growth inhibitory concentration", "result": 6.4, "unit": "nM"}, {"measurement": "GI50", "setting": "[5]; NCI-H23, reference values from literature (Leal et al. Br. J Pharmacol, 2010), read-out: GI50 value: 50% growth inhibitory concentration", "result": 5.3, "unit": "nM"}, {"measurement": "GI50", "setting": "[6]; NCI-H460, reference values from literature (Leal et al. Br. J Pharmacol, 2010), read-out: GI50 value: 50% growth inhibitory concentration", "result": 1.5, "unit": "nM"}, {"measurement": "GI50", "setting": "A549 lung cancer cells; A549, reference values from literature (Leal et al. Br. J Pharmacol, 2010), read-out: GI50 value: 50% growth inhibitory concentration", "result": 1.3, "unit": "nM"}]}
{"smiles": "COc1c(C)cc2c(c1C)[C@H]1N(C)[C@@](C)(C2)C(C)N2C1(C)[C@@H]1CCC3(CCCC4=C3Cc3ccc(C)cc34)C(=O)OC[C@@]2(C)c2c3c(c(C)c(C)c21)OCO3", "note": "(some centres unmarked) [drawing 163]", "values": [{"measurement": "GI50", "setting": "[1]; MCF-7 breast cancer cells, comparative value based on the literature, read-out: antitumor activity GI50 value: 50% growth inhibitory concentration", "result": 1.7, "unit": "nM"}, {"measurement": "GI50", "setting": "[2]; MDA-MB-231 breast cancer cells, comparative value based on the literature, read-out: antitumor activity GI50 value: 50% growth inhibitory concentration", "result": 3.4, "unit": "nM"}, {"measurement": "GI50", "setting": "[3]; HT-29 colorectal cancer cells, comparative value based on the literature, read-out: antitumor activity GI50 value: 50% growth inhibitory concentration", "result": 2.4, "unit": "nM"}, {"measurement": "GI50", "setting": "[4]; HCT-116 colorectal cancer cells, comparative value based on the literature, read-out: antitumor activity GI50 value: 50% growth inhibitory concentration", "result": 6.4, "unit": "nM"}, {"measurement": "GI50", "setting": "[5]; NCl-H23 lung cancer cells, comparative value based on the literature, read-out: antitumor activity GI50 value: 50% growth inhibitory concentration", "result": 5.3, "unit": "nM"}, {"measurement": "GI50", "setting": "[6]; NCl--H460 lung cancer cells, comparative value based on the literature, read-out: antitumor activity GI50 value: 50% growth inhibitory concentration", "result": 1.5, "unit": "nM"}, {"measurement": "GI50", "setting": "A549 lung cancer cells; A549 lung cancer cells, comparative value based on the literature, read-out: antitumor activity GI50 value: 50% growth inhibitory concentration", "result": 1.3, "unit": "nM"}]}
